Measured values from the supplement of paper PMC4862054.

test system: DU-4475; test: normalised response (% of control), CellTiter-Glo; higher = more viable cells (100 = DMSO, 0 = benzethonium chloride kill control); settings: incubation time: 72 h
In short: (§1)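 Plates were normalised with 0.1 % DMSO as 100 and a positive kill control as 0. Breast cancer cell lines in 20 µl suspension had been seeded into 384-well plates with compound at 5 concentrations in 10-fold steps over a compound-specific 10,000-fold range, incubated 72 h, and read for CellTox Green fluorescence (485/520 nm) followed by CellTiter-Glo luminescence. Each value is the normalised signal at a single concentration.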

`CS(=O)(=O)CCNCc1ccc(-c2ccc3ncnc(Nc4ccc(OCc5cccc(F)c5)c(Cl)c4)c3c2)o1` [Lapatinib] (100 nM) showed a normalised response of 99.1%.

test system: HCC1599; test: as above; settings: incubation time: 72 h
In short: as §1

Going from `Cc1cc(C(C)Nc2ccccc2)c2nc(N3CCOCC3)cc(=O)n2c1` (stereo unspecified) [TGX-221] (1000 nM) to `FC(F)c1nc2ccccc2n1-c1nc(N2CCOCC2)nc(N2CCOCC2)n1` [ZSTK474] (1000 nM), the normalised response falls from 106% to 79.1%.

Compared with `CCCC(CCC)C(=O)O` [Valproic acid] (100000 nM), `COC(=O)C[C@](O)(CCCC(C)(C)O)C(=O)O[C@@H]1C(OC)=C[C@]23CCCN2CCc2cc4c(cc2[C@H]13)OCO4` [Omacetaxine] (1000 nM) is lower in normalised response: 94.1% for the first, 8.63% for the second.

First: COc1cc(Nc2ncc(F)c(Nc3ccc4c(n3)NC(=O)C(C)(C)O4)n2)cc(OC)c1OC [Tamatinib] (1000 nM)
Second: CN(c1ccccc1CNc1nc(Nc2ccc3c(c2)CC(=O)N3)ncc1C(F)(F)F)S(C)(=O)=O (1000 nM)
The normalised response of the first is lower: 106% for the first, 107% for the second.

First: Nc1nccc(-c2c(-c3ccc(F)cc3)ncn2C2CCCCC2)n1 (1000 nM)
Second: CS(=O)(=O)CCNCc1ccc(-c2ccc3ncnc(Nc4ccc(OCc5cccc(F)c5)c(Cl)c4)c3c2)o1 [Lapatinib] (100 nM)
The normalised response of the first is higher: 104% for the first, 97.2% for the second.

Compound `C[C@@H]1CCN(C(=O)CC#N)C[C@@H]1N(C)c1ncnc2[nH]ccc12` [Tofacitinib] (500 nM) has a normalised response of 138%.

test system: CAL-51; test: as above; settings: incubation time: 72 h
In short: as §1

Compared with `Cc1cc(C(C)Nc2ccccc2)c2nc(N3CCOCC3)cc(=O)n2c1` (stereo unspecified) [TGX-221] (1000 nM), `FC(F)c1nc2ccccc2n1-c1nc(N2CCOCC2)nc(N2CCOCC2)n1` [ZSTK474] (1000 nM) is lower in normalised response: 102% for the first, 49.7% for the second.

Compared with `CCCC(CCC)C(=O)O` [Valproic acid] (100000 nM), `COC(=O)C[C@](O)(CCCC(C)(C)O)C(=O)O[C@@H]1C(OC)=C[C@]23CCCN2CCc2cc4c(cc2[C@H]13)OCO4` [Omacetaxine] (1000 nM) is lower in normalised response: 83.5% for the first, 10.1% for the second.

First: COc1cc(Nc2ncc(F)c(Nc3ccc4c(n3)NC(=O)C(C)(C)O4)n2)cc(OC)c1OC [Tamatinib] (1000 nM)
Second: CN(c1ccccc1CNc1nc(Nc2ccc3c(c2)CC(=O)N3)ncc1C(F)(F)F)S(C)(=O)=O (1000 nM)
The normalised response of the first is higher: 92.1% for the first, 53.6% for the second.

First: Nc1nccc(-c2c(-c3ccc(F)cc3)ncn2C2CCCCC2)n1 (1000 nM)
Second: CS(=O)(=O)CCNCc1ccc(-c2ccc3ncnc(Nc4ccc(OCc5cccc(F)c5)c(Cl)c4)c3c2)o1 [Lapatinib] (100 nM)
The normalised response of the first is higher: 97% for the first, 90.5% for the second.

`C[C@@H]1CCN(C(=O)CC#N)C[C@@H]1N(C)c1ncnc2[nH]ccc12` [Tofacitinib] (500 nM) gave a normalised response of 75.8%.

test system: MDA-MB-468; test: as above; settings: incubation time: 72 h
In short: as §1

Compared with `Cc1cc(C(C)Nc2ccccc2)c2nc(N3CCOCC3)cc(=O)n2c1` (stereo unspecified) [TGX-221] (1000 nM), `FC(F)c1nc2ccccc2n1-c1nc(N2CCOCC2)nc(N2CCOCC2)n1` [ZSTK474] (1000 nM) is lower in normalised response: 77.8% for the first, 58.3% for the second.

Compared with `CCCC(CCC)C(=O)O` [Valproic acid] (100000 nM), `COC(=O)C[C@](O)(CCCC(C)(C)O)C(=O)O[C@@H]1C(OC)=C[C@]23CCCN2CCc2cc4c(cc2[C@H]13)OCO4` [Omacetaxine] (1000 nM) is lower in normalised response: 97.8% for the first, 4.18% for the second.

Going from `COc1cc(Nc2ncc(F)c(Nc3ccc4c(n3)NC(=O)C(C)(C)O4)n2)cc(OC)c1OC` [Tamatinib] (1000 nM) to `CN(c1ccccc1CNc1nc(Nc2ccc3c(c2)CC(=O)N3)ncc1C(F)(F)F)S(C)(=O)=O` (1000 nM), the normalised response falls from 88.7% to 69%.

Compared with `Nc1nccc(-c2c(-c3ccc(F)cc3)ncn2C2CCCCC2)n1` (1000 nM), `CS(=O)(=O)CCNCc1ccc(-c2ccc3ncnc(Nc4ccc(OCc5cccc(F)c5)c(Cl)c4)c3c2)o1` [Lapatinib] (100 nM) is higher in normalised response: 68.9% for the first, 102% for the second.

Work on `C[C@@H]1CCN(C(=O)CC#N)C[C@@H]1N(C)c1ncnc2[nH]ccc12` [Tofacitinib] (500 nM) yielded a normalised response of 104%.

test system: MFM-223; test: as above; settings: incubation time: 72 h
In short: as §1

First: Cc1cc(C(C)Nc2ccccc2)c2nc(N3CCOCC3)cc(=O)n2c1 (stereo unspecified) [TGX-221] (1000 nM)
Second: FC(F)c1nc2ccccc2n1-c1nc(N2CCOCC2)nc(N2CCOCC2)n1 [ZSTK474] (1000 nM)
The normalised response of the first is higher: 95% for the first, 55.8% for the second.

Compared with `CCCC(CCC)C(=O)O` [Valproic acid] (100000 nM), `COC(=O)C[C@](O)(CCCC(C)(C)O)C(=O)O[C@@H]1C(OC)=C[C@]23CCCN2CCc2cc4c(cc2[C@H]13)OCO4` [Omacetaxine] (1000 nM) is lower in normalised response: 99.2% for the first, 14.4% for the second.

First: COc1cc(Nc2ncc(F)c(Nc3ccc4c(n3)NC(=O)C(C)(C)O4)n2)cc(OC)c1OC [Tamatinib] (1000 nM)
Second: CN(c1ccccc1CNc1nc(Nc2ccc3c(c2)CC(=O)N3)ncc1C(F)(F)F)S(C)(=O)=O (1000 nM)
The normalised response of the first is higher: 104% for the first, 92.3% for the second.

Compared with `Nc1nccc(-c2c(-c3ccc(F)cc3)ncn2C2CCCCC2)n1` (1000 nM), `CS(=O)(=O)CCNCc1ccc(-c2ccc3ncnc(Nc4ccc(OCc5cccc(F)c5)c(Cl)c4)c3c2)o1` [Lapatinib] (100 nM) is lower in normalised response: 105% for the first, 104% for the second.

For `C[C@@H]1CCN(C(=O)CC#N)C[C@@H]1N(C)c1ncnc2[nH]ccc12` [Tofacitinib] (500 nM), the normalised response was 108%.

test system: MDA-MB-231; test: as above; settings: incubation time: 72 h
In short: as §1

First: Cc1cc(C(C)Nc2ccccc2)c2nc(N3CCOCC3)cc(=O)n2c1 (stereo unspecified) [TGX-221] (1000 nM)
Second: Nc1nccc(-c2c(-c3ccc(F)cc3)ncn2C2CCCCC2)n1 (1000 nM)
The normalised response of the first is lower: 89.7% for the first, 98.7% for the second.

First: CCCC(CCC)C(=O)O [Valproic acid] (100000 nM)
Second: COc1cc(Nc2ncc(F)c(Nc3ccc4c(n3)NC(=O)C(C)(C)O4)n2)cc(OC)c1OC [Tamatinib] (1000 nM)
The normalised response of the first is lower: 98.7% for the first, 101% for the second.
